Results reported in patent publication US6514519B1, “Edelfosin for the treatment of brain tumors” (Med-Mark Pharma GmbH, priority 1998, dated 2003).
Values joined by “and” are separate entries in the source; they are usually repeats but may differ in a detail not shown here. Equal values may be shown once. “Also recorded” adds a separate entry of the source.

Key:
[1] = test system: brain tumors; experiment: clinical phase II study with edelfosine: result of therapy and survival time; assay type: in vivo, humans; details: for Result of therapy (clin.): assessed on clinical symptoms (clin.)
Protocol: The patients which are listed below in Table 1, with their status before and after treatment, were treated with edelfosine in the phase II study. It is important to emphasize in this connection that virtually all the patients have previously been treated or were from the outset untreatable (inoperable tumors). All the patients were treated with an average of 300 mg of edelfosine/day (range of variation between 50 and 600 mg). […] The carrier medium/active ingredient mixture is drunk in different dose levels/portion, which differed from patient to patient, distributed over the day. Administration is accordingly oral; the treatment is entirely on an outpatient basis, unless the clinical picture makes admission to hospital unavoidable.
The number and duration of previous treatments before the start of therapy with a medicine are crucial for assessing the therapeutic efficacy=survival time and quality of survival; the survival time is in such cases always measured from the time at which the therapy with a medicine is started. The time which has elapsed from diagnosis until the start of treatment initially plays no direct part in this. However, it must be taken into account when the survival time of a last resort therapy (as edelfosine in this case) is compared with that of therapies which are usually started immediately after diagnosis (this is the case for chemotherapy and radiation studies).
For virtually all the patients, a tumor which continued to grow after all the therapies used led to the edelfosine therapy, i.e. the tumor was progressive (cf. Table 1, column “Tumor activity”). The specification of “clinical” progression means in this connection that the tumor was progressive on the basis of deteriorating clinical symptoms (for example increase in headaches, congestion in the head, dizziness, tendency to fall, neurological symptoms in general), but no objective study (for example CT) was available for comparison.
The pharmacodynamic effect, i.e. the effect of a medicine directly on the tumor, is normally measured 2 months after starting a therapy. This pharmacodynamic effect is defined differently depending on which class the substance belongs to (that is to say cytostatic, hormone product, immunomodulator etc.). […] The aim of therapy is accordingly a cessation of tumor growth (no change).
The survival time is measured from the start of therapy with a medicine. The state of the art survival time data reported in the literature for the treatment of brain tumors are usually based on either adjuvant treatment of patients, that is to say directly after surgical removal of a tumor, or else on treatment immediately after making the diagnosis.

[2] = adverse drug reactions (ADR) investigated during phase II studies; assay type: in vivo, humans
Source text: During phase II studies, in accordance with requirements the adverse drug reactions (ADR) were also investigated. The result is shown in Table 2: The grading of the symptoms as transferred to the case report forms took place in accordance with the internationally used WHO classification. The assessment “yes” means that a symptom is caused by the medicine.

[3] = test system: healthy cells; details: healthy vs degenerate cells; cited from earlier work
[4] = test system: human leukemic cells; details: cited from earlier work
[5] = patients with Karnofsky index <70% (N=16)
[6] = ADR caused by edelfosine, number of 150 courses
[7] = ADR caused by edelfosine, number of 159 courses
[8] = ADR not caused by edelfosine, number of 149 courses
[9] = ADR not caused by edelfosine, number of 150 courses
[10] = ADR not caused by edelfosine, number of 159 courses
[11] = ADR possibly caused by edelfosine, number of 150 courses
[12] = ADR possibly caused by edelfosine, number of 159 courses
[13] = no symptom reported, number of 149 courses
[14] = no symptom reported, number of 150 courses

## CCCCCCCCCCCCCCCCCCOC[C@H](COP(=O)([O-])OCC[N+](C)(C)C)OC (racemic) [edelfosine, 1-octadecyl-2-methyl-sn-glycero-3-phosphocholine]
[1]; Anaplastic oligodendroglioma
  Result of therapy: No further progression
[1]; Astrocytoma II
  Result of therapy: No further progression
  Result of therapy (clin.): No further progression
[1]; Astrocytoma II/III
  Result of therapy: No further progression
  Survival time: 412 days
[1]; Ependymoblastoma
  Result of therapy: Progression
  Survival time: 196 days
[1]; Glioblastoma (Ø histol.)
  Result of therapy: Progression
  Result of therapy (clin.): No further progression
[1]; Glioblastoma IV
  Result of therapy: Progression
  Survival time: 143 days and 266 days
  Result of therapy (clin.): No further progression
[1]; Glioblastoma IV + Gliosarcoma
  Result of therapy: No further progression
  Survival time: 203 days
[1]; Glioblastoma multiforme
  Result of therapy (clin.): No further progression
[1]; Glioblastoma, many years after completion of therapy
  survival of Pat. No. 247: survived until the 8th year
[1]; Gliosarcoma
  Result of therapy: No further progression
  Survival time: 110 days
[1]; Oligoastrocytoma II
  Survival time: 270 days
  Result of therapy (clin.): No further progression
[1]; Oligoastrocytoma IV
  Result of therapy: No further progression
  Survival time: 1602 days
[1]; Oligodendroglioma III
  Result of therapy: No further progression
  Survival time: 573 days
[1]; Oligodendroglioma III/IV
  Result of therapy: No further progression
  Survival time: 2141 days
[1]; Oligodendroglioma IV
  Result of therapy: No further progression
  Survival time: 572 days
[1]; after 2 months
  patients with clinical stabilization/improvement although tumor progressive according to imaging: 2%
  treated patients with tumor still progressive: about 24%
[1]; after 2 months of therapy, no objective study
  treated patients with stabilization on the basis of clinical symptoms (cNC=clinical no change): approx. 14%
[1]; imaging study after 2 months of therapy
  treated patients with cessation of tumor growth (NC=no change): about 56%
[1]; patients with Karnofsky index <70%
  maximum gain in survival time: > 20 months
[1]; [5]
  average survival time: about 260 days
  range of variation of survival time: 90 to 619 days
[2]; [6]
  Appetite, Grade 1 yes: 4
  Appetite, Grade 2 yes: 1
  Appetite, Grade 3 yes: 2
  Constipation, Grade 1 yes: 3
  Diarrhea, Grade 1 yes: 5
  Diarrhea, Grade 2 yes: 1
[2]; [7]
  Nausea/vomiting, Grade 1 yes: 12
  Nausea/vomiting, Grade 2 yes: 2
[2]; ADR not caused by edelfosine, number of 135 courses
  CNS toxicity, Grade 1 no: 1
[2]; ADR not caused by edelfosine, number of 148 courses
  Skin changes, Grade 4 no: 3
[2]; [8]
  Alopecia, Grade 1 no: 3
  Alopecia, Grade 2 no: 1
  Alopecia, Grade 3 no: 3
  Alopecia, Grade 4 no: 16
  Pain, Grade 1 no: 7
  Pain, Grade 2 no: 5
  Pain, Grade 3 no: 3
  Periph. neurop., Grade 1 no: 18
[2]; [9]
  Appetite, Grade 1 no: 4
  Appetite, Grade 2 no: 1
  Appetite, Grade 3 no: 4
  Appetite, Grade 4 no: 1
  Arrhythmia, Grade 1 no: 5
  Constipation, Grade 1 no: 1
  Diarrhea, Grade 2 no: 1
  Dyspnea, Grade 1 no: 4
  Dyspnea, Grade 2 no: 3
  Dyspnea, Grade 3 no: 1
  Dyspnea, Grade 4 no: 1
  Fever, Grade 1 no: 1
  Fever, Grade 2 no: 7
  Hemorrhages, Grade 1 no: 2
  Infection, Grade 1 no: 3
  Infection, Grade 2 no: 1
[2]; [10]
  Nausea/vomiting, Grade 1 no: 1
  Nausea/vomiting, Grade 2 no: 8
  Nausea/vomiting, Grade 3 no: 2
[2]; ADR possibly caused by edelfosine, number of 135 courses
  CNS toxicity, Grade 1 ?: 1
[2]; ADR possibly caused by edelfosine, number of 149 courses
  Alopecia, Grade 1 ?: 1
[2]; [11]
  Appetite, Grade 1 ?: 5
  Appetite, Grade 2 ?: 2
  Appetite, Grade 3 ?: 2
  Constipation, Grade 1 ?: 3
  Diarrhea, Grade 1 ?: 1
[2]; [12]
  Nausea/vomiting, Grade 1 ?: 5
  Nausea/vomiting, Grade 2 ?: 6
[2]; after several years of uninterrupted therapy
  cumulative toxicity: no cumulative toxicity
[2]; edelfosine therapy
  reversibility of observed ADR symptoms: reversible within a very short time (hours)
[2]; no symptom reported, number of 135 courses
  CNS toxicity, Grade 0: 133
[2]; no symptom reported, number of 148 courses
  Skin changes, Grade 0: 145
[2]; [13]
  Alopecia, Grade 0: 125
  Hematuria, Grade 0: 149
  Pain, Grade 0: 133
  Periph. neurop., Grade 0: 131
  Stomatitis, Grade 0: 149
[2]; [14]
  Appetite, Grade 0: 123
  Arrhythmia, Grade 0: 145
  Constipation, Grade 0: 143
  Diarrhea, Grade 0: 142
  Dyspnea, Grade 0: 141
  Fever, Grade 0: 142
  Heart failure, Grade 0: 150
  Hemorrhages, Grade 0: 148
  Infection, Grade 0: 146
[2]; no symptom reported, number of 151 courses
  Allergy, Grade 0: 151
[2]; no symptom reported, number of 159 courses
  Nausea/vomiting, Grade 0: 121
[2]; patients with nausea/vomiting (gastric pressure) during edelfosine therapy
  esophagoscopy, gastroscopy findings: no pathological findings at all
[2]; therapy of about 6 years, total dose of about 640 g
  adverse drug reactions of Pat. No. 542: negligible adverse drug reactions; also recorded: no ADRs at all
[3]
  fate in healthy cells after uptake: degraded in healthy cells
[4]
  apoptosis: reinduction of apoptosis
